Assay results reported in patent US9777000B2, “Pyrazole derivative” (MOCHIDA PHARMACEUTICAL CO., LTD., priority 2013, dated 2017).
pIC50: −log10 of the molar value.

The molecules below were run against human PDE10 (Homo sapiens (Human), UniProt Q9Y233) (assay: Evaluation of enzyme inhibitory activity: human PDE10 inhibitory effect (IMAP TR-FRET)). Details: cAMP substrate.
Type: biochemical
In short: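 IMAP TR-FRET assay: PDE10 (diluted to 2 ng/mL) was preincubated 5 min with compound in Tris pH 7.2, 10 mM MgCl2, 0.1% BSA, then reacted 60 min at room temperature with cAMP (diluted to 400 nM). 5′-AMP was read as 520/490 nm TR-FRET (ex 340 nm) after ≥3 h binding; IC50 was referenced to solvent (0%) and no-enzyme (100%) wells.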

Chain of human PDE10 (Q9Y233 whole entry): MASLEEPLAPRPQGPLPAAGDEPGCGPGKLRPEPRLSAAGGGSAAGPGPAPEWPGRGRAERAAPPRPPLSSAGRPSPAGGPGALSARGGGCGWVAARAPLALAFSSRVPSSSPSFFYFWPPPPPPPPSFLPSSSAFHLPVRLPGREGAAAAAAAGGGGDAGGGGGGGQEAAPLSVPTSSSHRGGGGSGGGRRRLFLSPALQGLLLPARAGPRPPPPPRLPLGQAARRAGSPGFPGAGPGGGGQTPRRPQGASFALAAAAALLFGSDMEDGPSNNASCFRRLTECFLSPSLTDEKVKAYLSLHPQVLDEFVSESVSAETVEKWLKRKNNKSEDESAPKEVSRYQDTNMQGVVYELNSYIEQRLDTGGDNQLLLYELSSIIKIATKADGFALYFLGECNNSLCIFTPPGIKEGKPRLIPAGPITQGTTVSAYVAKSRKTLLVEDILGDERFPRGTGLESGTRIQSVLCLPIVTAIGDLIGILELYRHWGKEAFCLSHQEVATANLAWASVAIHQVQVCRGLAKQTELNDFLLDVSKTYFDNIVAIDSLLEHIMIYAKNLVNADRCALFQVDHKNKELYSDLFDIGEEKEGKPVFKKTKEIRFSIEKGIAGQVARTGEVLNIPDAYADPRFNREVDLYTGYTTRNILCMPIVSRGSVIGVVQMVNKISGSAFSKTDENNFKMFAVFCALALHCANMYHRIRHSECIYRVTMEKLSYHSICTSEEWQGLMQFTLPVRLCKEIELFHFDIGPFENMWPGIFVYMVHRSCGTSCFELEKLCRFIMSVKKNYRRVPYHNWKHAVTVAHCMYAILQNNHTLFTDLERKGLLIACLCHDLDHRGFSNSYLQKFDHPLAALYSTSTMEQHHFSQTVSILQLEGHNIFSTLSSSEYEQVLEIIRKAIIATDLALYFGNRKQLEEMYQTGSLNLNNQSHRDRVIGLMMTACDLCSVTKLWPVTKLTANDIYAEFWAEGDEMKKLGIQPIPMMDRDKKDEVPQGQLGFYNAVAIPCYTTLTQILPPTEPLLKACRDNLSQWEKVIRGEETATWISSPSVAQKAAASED

| pIC50 | SMILES |
| --- | --- |
| > 8.30 | Cn1ncc(-c2nc(C(F)F)cs2)c1C(=O)Nc1ccn2cc(-c3ccccc3)nc2c1 [Example 1.3, 4-(4-(difluoromethyl)thiazol-2-yl)-1-methyl-N-(2-phenylimidazo[1,2-a]pyridin-7-yl)-1H-pyrazole-5-carboxamide] |
| > 8.30 | Cc1cccc(-c2cnn(C)c2C(=O)NC2CCn3cc(-c4ccccc4)nc3C2)n1 (centres unmarked) [Example 2.9, 1-methyl-4-(6-methylpyridin-2-yl)-N-(2-phenyl-5,6,7,8-tetrahydroimidazo[1,2-a]pyridin-7-yl)-1H-pyrazole-5-carboxamide] |
| > 8.30 | Cc1nc(-c2cnn(C)c2C(=O)NC2CCn3nc(-c4ccccc4)nc3C2)sc1Br (centres unmarked) [Example 5.7, 4-(5-bromo-4-methylthiazol-2-yl)-1-methyl-N-(2-phenyl-5,6,7,8-tetrahydro-[1,2,4]triazolo[1,5-a]pyridin-7-yl)-1H-pyrazole-5-carboxamide] |
| > 8.30 | Cc1csc(-c2cnn(C)c2C(=O)Nc2ccn3cc(-c4ccccc4)nc3c2)n1 [Example 1.2, 1-methyl-4-(4-methylthiazol-2-yl)-N-(2-phenylimidazo[1,2-a]pyridin-7-yl)-1H-pyrazole-5-carboxamide] |
| > 8.30 | CCc1csc(-c2cnn(C)c2C(=O)Nc2ccn3nc(-c4ccccc4)nc3c2)n1 [Example 3.18, 4-(4-ethylthiazol-2-yl)-1-methyl-N-(2-phenyl-[1,2,4]triazolo[1,5-a]pyridin-7-yl)-1H-pyrazole-5-carboxamide] |
| > 8.30 | Cn1ncc(-c2nc(C(F)(F)F)cs2)c1C(=O)Nc1ccn2nc(N3CC[C@H](F)C3)nc2c1 [Example 4.22, (S)-N-(2-(3-fluoropyrrolidin-1-yl)-[1,2,4]triazolo[1,5-a]pyridin-7-yl)-1-methyl-4-(4-(trifluoromethyl)thiazol-2-yl)-1H-pyrazole-5-carboxamide] |
| > 8.30 | Cn1ncc(-c2nc(C(F)F)cs2)c1C(=O)NC1CCn2cc(-c3ccc(F)cc3)nc2C1 (centres unmarked) [Example 2.28, 4-(4-(difluoromethyl)thiazol-2-yl)-N-(2-(4-fluorophenyl)-5,6,7,8-tetrahydroimidazo[1,2-a]pyridin-7-yl)-1-methyl-1H-pyrazole-5-carboxamide] |
| > 8.30 | Cc1nc(-c2cnn(C)c2C(=O)NC2CCn3nc(N4CCCC4)nc3C2)sc1C (centres unmarked) [Example 5.45, 4-(4,5-dimethylthiazol-2-yl)-1-methyl-N-(2-(pyrrolidin-1-yl)-5,6,7,8-tetrahydro-[1,2,4]triazolo[1,5-a]pyridin-7-yl)-1H-pyrazole-5-carboxamide] |
| > 8.30 | Cn1ncc(-c2nc(C(F)(F)F)cs2)c1C(=O)NC1CCn2cc(-c3ccc(F)cc3)nc2C1 (centres unmarked) [Example 2.29, N-(2-(4-fluorophenyl)-5,6,7,8-tetrahydroimidazo[1,2-a]pyridin-7-yl)-1-methyl-4-(4-(trifluoromethyl)thiazol-2-yl)-1H-pyrazole-5-carboxamide] |

Second part, the molecule before the results:

| SMILES | pIC50 |
| --- | --- |
| Cc1ccnc(-c2cnn(C)c2C(=O)Nc2ccn3nc(N4CC[C@H](F)C4)nc3c2)c1 [Example 4.17, (S)-N-(2-(3-fluoropyrrolidin-1-yl)-[1,2,4]triazolo[1,5-a]pyridin-7-yl)-1-methyl-4-(4-methylpyridin-2-yl)-1H-pyrazole-5-carboxamide] | > 8.30 |
| COc1ncc(F)c(-c2cnn(C)c2C(=O)Nc2cc3nc(-c4ccccc4)nn3cc2F)n1 [Example 3.27, 4-(5-fluoro-2-methoxypyrimidin-4-yl)-N-(6-fluoro-2-phenyl-[1,2,4]triazolo[1,5-a]pyridin-7-yl)-1-methyl-1H-pyrazole-5-carboxamide] | > 8.30 |
| Cc1cncc(-c2cnn(C)c2C(=O)Nc2ccn3nc(N4CCCC4)nc3c2)n1 [Example 4.29, 1-methyl-4-(6-methylpyrazin-2-yl)-N-(2-(pyrrolidin-1-yl)-[1,2,4]triazolo[1,5-a]pyridin-7-yl)-1H-pyrazole-5-carboxamide] | > 8.30 |
| Cn1ncc(-c2ncncc2Cl)c1C(=O)Nc1cc2nc(-c3ccccc3)nn2cc1F [Example 3.29, 4-(5-chloropyrimidin-4-yl)-N-(6-fluoro-2-phenyl-[1,2,4]triazolo[1,5-a]pyridin-7-yl)-1-methyl-1H-pyrazole-5-carboxamide] | > 8.30 |
| Cc1ccnc(-c2cnn(C)c2C(=O)Nc2cc3nc(-c4ccccc4)nn3cc2F)n1 [Example 3.43, N-(6-fluoro-2-phenyl-[1,2,4]triazolo[1,5-a]pyridin-7-yl)-1-methyl-4-(4-methylpyrimidin-2-yl)-1H-pyrazole-5-carboxamide] | > 8.30 |
| Cc1ccc(-c2cnn(C)c2C(=O)Nc2ccn3cc(-c4ccccc4)nc3c2)nc1 [Example 1.1, 1-methyl-4-(5-methylpyridin-2-yl)-N-(2-phenylimidazo[1,2-a]pyridin-7-yl)-1H-pyrazole-5-carboxamide] | > 8.30 |
| Cc1ncc(C)c(-c2cnn(C)c2C(=O)Nc2cc3nc(N4CCCC4)nn3cc2F)n1 [Example 4.35, 4-(2,5-dimethylpyrimidin-4-yl)-N-(6-fluoro-2-(pyrrolidin-1-yl)-[1,2,4]triazolo[1,5-a]pyridin-7-yl)-1-methyl-1H-pyrazole-5-carboxamide] | > 8.30 |
| Cc1cncc(-c2cnn(C)c2C(=O)Nc2cc3nc(-c4ccccc4)nn3cc2F)n1 [Example 3.9, N-(6-fluoro-2-phenyl-[1,2,4]triazolo[1,5-a]pyridin-7-yl)-1-methyl-4-(6-methylpyrazin-2-yl)-1H-pyrazole-5-carboxamide] | > 8.30 |
| Cc1ccc(-c2cnn(C)c2C(=O)Nc2cc3nc(-c4ccccc4)nn3cc2F)nn1 [Example 3.45, N-(6-fluoro-2-phenyl-[1,2,4]triazolo[1,5-a]pyridin-7-yl)-1-methyl-4-(6-methylpyridazin-3-yl)-1H-pyrazole-5-carboxamide] | > 8.30 |
| Cc1ncc(Cl)c(-c2cnn(C)c2C(=O)Nc2cc3nc(-c4ccccc4)nn3cc2F)n1 [Example 3.41, 4-(5-chloro-2-methylpyrimidin-4-yl)-N-(6-fluoro-2-phenyl-[1,2,4]triazolo[1,5-a]pyridin-7-yl)-1-methyl-1H-pyrazole-5-carboxamide] | > 8.30 |
| COc1ccnc(-c2cnn(C)c2C(=O)Nc2ccn3nc(N4CCCC4)nc3c2)c1 [Example 4.28, 4-(4-methoxypyridin-2-yl)-1-methyl-N-(2-(pyrrolidin-1-yl)-[1,2,4]triazolo[1,5-a]pyridin-7-yl)-1H-pyrazole-5-carboxamide] | > 8.30 |
| Cc1cc(-c2cnn(C)c2C(=O)Nc2cc3nc(-c4ccccc4)nn3cc2F)ncn1 [Example 3.39, N-(6-fluoro-2-phenyl-[1,2,4]triazolo[1,5-a]pyridin-7-yl)-1-methyl-4-(6-methylpyrimidin-4-yl)-1H-pyrazole-5-carboxamide] | > 8.30 |
| Cc1cnnc(-c2cnn(C)c2C(=O)Nc2cc3nc(-c4ccccc4)nn3cc2F)c1 [Example 3.46, N-(6-fluoro-2-phenyl-[1,2,4]triazolo[1,5-a]pyridin-7-yl)-1-methyl-4-(5-methylpyridazin-3-yl)-1H-pyrazole-5-carboxamide] | > 8.30 |
| Cc1cc(C)nc(-c2cnn(C)c2C(=O)Nc2ccn3nc(N4CCC[C@@H]4C)nc3c2)c1 [Example 4.8, (S)-4-(4,6-dimethylpyridin-2-yl)-1-methyl-N-(2-(2-methylpyrrolidin-1-yl)-[1,2,4]triazolo[1,5-a]pyridin-7-yl)-1H-pyrazole-5-carboxamide] | > 8.30 |
